Measurements taken from patent US20090012148A1, “REDUCING CELLULAR CHOLESTEROL LEVELS AND/OR TREATING OR PREVENTING PHOSPHOLIPIDOSIS” (priority 2005, published 2009).

Tests used:
Format in all cases: cell-based, Chinese hamster
CT60 cells [1] = test: Filipin binding assay, average filipin intensity and staining pattern; details: for Average Filipin Assay @ 10 μM dose Fraction of Control: compounds from secondary library
Protocol: We developed assays for correction of the NPC phenotype in CHO cell lines using filipin, which binds to non-esterified cholesterol and has been used to visualize the free cholesterol content in NPC cells. The initial screens were carried out in CT60 cells, which express a mutated hamster NPC1 protein and a gain of function mutation in SCAP (42). These cells cannot traffic LDL-derived cholesterol out of late endosomes, and large amounts of cholesterol accumulate in LSO compartments. FIGS. 1A-B show images of filipin staining in a control CHO cell line, TRVb1 (45) (FIG. 1A) and in CT60 cells (FIG. 1B). It can be seen that the CT60 cells show much more filipin staining than control cells and that the fluorescence in CT60 cells is concentrated in peri-nuclear organelles.
For screening, images were acquired using a Discovery-1 automated microscopy system with a 10× objective and corrected for background and shading as described in Methods. Two thresholds were set for filipin staining, a low threshold to include all cell areas, and a high threshold for the strong filipin staining in the peri-nuclear LSOs. The threshold values were set for each plate from analysis of 64 images in 32 wells of untreated CT60 cells. […] In developing the low threshold, we compared the outlines based on the thresholded cell images with transmitted light images, and the thresholds provided good agreement with the transmitted light cell boundaries.
As a simple measure of the intensity of filipin staining, we measured the filipin intensity per pixel above the threshold. The conditions of filipin labeling (time and concentration) were adjusted to optimize the discrimination between the CT60 cells and control TRVb1 cells. […] The quality of the assay for screening is expressed in terms of a statistical parameter Z′(46):
Using the above screening technique, we screened a library of 14,956 compounds added to cells for 16 hours at a final concentration of 10 μM, using a single well for each compound. Prior to application of the compounds, cells were grown in normal tissue culture medium containing 10% FBS, so the LSOs were filled with cholesterol (FIG. 1B). The cells were then imaged and analyzed using the average filipin intensity assay and the LSO compartment assay. In general, the two analyses identified similar compounds that reduced the filipin labeling.
Compound addition: The library compounds were formatted for screening in the Rockefeller University High Throughput Screening Facility. Cells were treated with the compounds from the chemical library one day after plating. We added […] of each compound (5 mM stock in DMSO) to 25 μl of screening Medium S composed of medium A supplemented with 1% FBS and 20 mM 4-(2-hydroxyethyl)-1-pipiperazine ethane sulphonic acid (HEPES) in Falcon 384-well V-bottomed polypropylene plates using a Packard MiniTrak™ robotic liquid handling system. To obtain ˜10 μM final concentration, 23 μl of the premixed compounds were dispensed into the plates containing cells and […] of culture medium A. For primary screening, 352 test compounds were added to each plate, and the remaining 32 wells were used as a control with only DMSO added. All plates were incubated with compounds for 16 h at 37° C. Plates were then washed three times with phosphate buffered saline pH 7.4 (PBS) using a Bio-Tek Elx405 plate washer (Bio-Tek Instruments Inc., Winooski, Vt.). For each wash cycle, […] of PBS was dispensed followed by aspiration with a residual volume of 16 μl per well. Finally, cells were fixed with 1.5% PFA in PBS for 20 min at room temperature, followed by 3 more washes with PBS.
Fluorescence labeling. To the fixed cells, filipin was added at a final concentration of 50 μg/ml in PBS for 45 m at room temperature to label free cholesterol. Cells were finally washed three times with PBS, and images were acquired immediately after labeling. […]

CT60 cells [2] = test: Gas chromatography cholesterol assay
Protocol: The cholesterol lowering effect of the 14 hit compounds identified by filipin labeling was measured by an alternative chemical method that involved GC separation of solvent-extracted cellular lipids (43). CT60 cells were treated with compounds at 10 μM under the same conditions as in the screening assays. Since the GC assay estimates FC content per cell, the values are compared to the average filipin intensity assay (Table 1).
CT60 or CT43 cells were plated on day 1 in 6-well plates. Hit compounds were added to the cells at 10 μM concentration. Cells were incubated for 24 h. Cellular lipids were extracted with hexane: iso-propyl alcohol (3:2 v/v). The lipid extracts were dried and re-suspended in hexane followed by separation on gas chromatograph using β-sitosterol as an internal standard.
Procedure: CT60 cells were plated in 6-well plates in Ham's F-12/1.176 g/L sodium bicarbonate/2 g/L glucose/10% FBS. Following 24 h incubation, cells were treated with 10 μM of each compounds, medium being replaced with Ham's F-12/1.176 g/L sodium bicarbonate/2 g/L glucose/5.5% FBS/20 mM HEPES. The change of the medium in the wells was performed to have experimental conditions similar to those used for the screening once chemical compounds were added to the cells. After 18 h treatment with compounds, cells were washed twice with Hank's balanced salt solutions (HBSS). Cellular lipids were extracted with hexane/isopropyl alcohol (3:2 v/v) (43) dried and resuspended in hexane followed by separation on a gas chromatograph (GC) using following conditions. A Hewlett Packard GC model HP 5890 series II (Palo Alto, Calif.) equipped with a flame ionization detector, split-splitless injector, and 15 m×0.53 mm HP-5 capillary column coated with […] film thickness of 5% phenyl methyl siloxane was used to separate free cholesterol. The injection temperature was maintained at 255° C. and oven temperature was held isothermally at 260° C. using helium as a mobile phase at 30 mL/min flow rate. The free cholesterol (FC) was quantified using beta-sitosterol as internal standard to correct for lipid losses during extraction.

25RA CHO cells = test: 3H cholesterol efflux assay on 25RA CHO cells; details: 10 μM, overnight chase
Protocol: 25RA CHO cells were incubated with 10 μM concentrations of compound 2-a-1, 2-a-3,2-a-8, 2-a-9, and 2-a-13. Cells were loaded with ^3H cholesterol and then chased overnight in the presence or absence of the various compounds. The media over the cells were removed, and radioactivity released from the cells was measured. The cells were then solubilized, and radioactivity remaining in the cells was measured. […] The 25-RA cells do have a defect in SCAP, which alters cholesterol homeostasis, including increased synthesis of cholesterol.

C=CCN1C(=O)C(=Cc2cc(C)n(-c3ccccc3)c2C)C(C(=O)OC)=C1C [Compound 2-a-15] was tested, and the “Average Filipin Assay @ 10 μM dose Fraction of Control” value (CT60 cells [1]) was 0.79 ± 0.01 Fraction of Control and the “μg FC/μg Protein (GC) @ 10 μM dose Fraction of Control” value (CT60 cells [2]) was 0.89 ± 0.03 Fraction of Control.
For CCOc1cccc2cc(-c3csc(Nc4cccc(C(F)(F)F)c4)n3)c(=O)oc12 [Compound 1-a-14], the “Average filipin intensity Fraction of control” value (CT60 cells [1]; 10 μM, 14 hit compounds from primary library) was 1.24 ± 0.04 Fraction of control and the “μg FC/μg Protein by GC Fraction of control” value (CT60 cells [2]; 10 μM, FC = free cholesterol) was 1.44 ± 0.16 Fraction of control.
CCN(CC)c1ccc(C=C2SC(=S)N(c3ccc(OC)cc3)C2=O)cc1 [Compound 2-a-3] was tested, and the “Average Filipin Assay @ 10 μM dose Fraction of Control” value (CT60 cells [1]) was 0.75 ± 0.01 Fraction of Control, the “μg FC/μg Protein (GC) @ 10 μM dose Fraction of Control” value (CT60 cells [2]) was 0.81 ± 0.03 Fraction of Control and the efflux of cholesterol (25RA CHO cells) was “promote efflux of cholesterol”.
In the case of FC(F)(F)COc1nc(NN=Cc2cccc(I)c2)nc(N(c2ccccc2)c2ccccc2)n1 [Compound 2-a-12], the “Average Filipin Assay @ 10 μM dose Fraction of Control” value (CT60 cells [1]) is reported as 0.87 ± 0.01 Fraction of Control.
With O=[N+]([O-])c1cccc(C=NNc2nc(Nc3cccc4ccccc34)nc(N(c3ccccc3)c3ccccc3)n2)c1 [Compound 2-a-13] the “Average Filipin Assay @ 10 μM dose Fraction of Control” value (CT60 cells [1]) was 0.75 ± 0.02 Fraction of Control, the “μg FC/μg Protein (GC) @ 10 μM dose Fraction of Control” value (CT60 cells [2]) was 0.79 ± 0.04 Fraction of Control and the efflux of cholesterol (25RA CHO cells) was “promote efflux of cholesterol”.
COc1ccccc1Nc1nc(Nc2ccccc2OC)nc(Nc2ccccc2OC)n1 [Compound 2-a-9] was tested, and the “Average Filipin Assay @ 10 μM dose Fraction of Control” value (CT60 cells [1]) was 0.74 ± 0.01 Fraction of Control, the “μg FC/μg Protein (GC) @ 10 μM dose Fraction of Control” value (CT60 cells [2]) was 0.75 ± 0.04 Fraction of Control and the efflux of cholesterol (25RA CHO cells) was “promote efflux of cholesterol”.
